# In ChEMBL document CHEMBL1131770, “Multiple parallel synthesis of N,N-dialkyldipeptidylamines as N-type calcium channel blockers” (Bioorg Med Chem Lett, 1999):
# pIC50: −log10 of the molar value.
# Target: Voltage-dependent N-type calcium channel subunit alpha-1B (Homo sapiens, UniProt Q00975)
# Assay: In vitro antagonism of N-type voltage sensitive calcium channel in IMR-32 assay using fluorescent [Ca2+] indicator […] in the presence of 5 uM nitrendipine
# Format: functional
# Chain of Voltage-dependent N-type calcium channel subunit alpha-1B (Q00975 whole entry): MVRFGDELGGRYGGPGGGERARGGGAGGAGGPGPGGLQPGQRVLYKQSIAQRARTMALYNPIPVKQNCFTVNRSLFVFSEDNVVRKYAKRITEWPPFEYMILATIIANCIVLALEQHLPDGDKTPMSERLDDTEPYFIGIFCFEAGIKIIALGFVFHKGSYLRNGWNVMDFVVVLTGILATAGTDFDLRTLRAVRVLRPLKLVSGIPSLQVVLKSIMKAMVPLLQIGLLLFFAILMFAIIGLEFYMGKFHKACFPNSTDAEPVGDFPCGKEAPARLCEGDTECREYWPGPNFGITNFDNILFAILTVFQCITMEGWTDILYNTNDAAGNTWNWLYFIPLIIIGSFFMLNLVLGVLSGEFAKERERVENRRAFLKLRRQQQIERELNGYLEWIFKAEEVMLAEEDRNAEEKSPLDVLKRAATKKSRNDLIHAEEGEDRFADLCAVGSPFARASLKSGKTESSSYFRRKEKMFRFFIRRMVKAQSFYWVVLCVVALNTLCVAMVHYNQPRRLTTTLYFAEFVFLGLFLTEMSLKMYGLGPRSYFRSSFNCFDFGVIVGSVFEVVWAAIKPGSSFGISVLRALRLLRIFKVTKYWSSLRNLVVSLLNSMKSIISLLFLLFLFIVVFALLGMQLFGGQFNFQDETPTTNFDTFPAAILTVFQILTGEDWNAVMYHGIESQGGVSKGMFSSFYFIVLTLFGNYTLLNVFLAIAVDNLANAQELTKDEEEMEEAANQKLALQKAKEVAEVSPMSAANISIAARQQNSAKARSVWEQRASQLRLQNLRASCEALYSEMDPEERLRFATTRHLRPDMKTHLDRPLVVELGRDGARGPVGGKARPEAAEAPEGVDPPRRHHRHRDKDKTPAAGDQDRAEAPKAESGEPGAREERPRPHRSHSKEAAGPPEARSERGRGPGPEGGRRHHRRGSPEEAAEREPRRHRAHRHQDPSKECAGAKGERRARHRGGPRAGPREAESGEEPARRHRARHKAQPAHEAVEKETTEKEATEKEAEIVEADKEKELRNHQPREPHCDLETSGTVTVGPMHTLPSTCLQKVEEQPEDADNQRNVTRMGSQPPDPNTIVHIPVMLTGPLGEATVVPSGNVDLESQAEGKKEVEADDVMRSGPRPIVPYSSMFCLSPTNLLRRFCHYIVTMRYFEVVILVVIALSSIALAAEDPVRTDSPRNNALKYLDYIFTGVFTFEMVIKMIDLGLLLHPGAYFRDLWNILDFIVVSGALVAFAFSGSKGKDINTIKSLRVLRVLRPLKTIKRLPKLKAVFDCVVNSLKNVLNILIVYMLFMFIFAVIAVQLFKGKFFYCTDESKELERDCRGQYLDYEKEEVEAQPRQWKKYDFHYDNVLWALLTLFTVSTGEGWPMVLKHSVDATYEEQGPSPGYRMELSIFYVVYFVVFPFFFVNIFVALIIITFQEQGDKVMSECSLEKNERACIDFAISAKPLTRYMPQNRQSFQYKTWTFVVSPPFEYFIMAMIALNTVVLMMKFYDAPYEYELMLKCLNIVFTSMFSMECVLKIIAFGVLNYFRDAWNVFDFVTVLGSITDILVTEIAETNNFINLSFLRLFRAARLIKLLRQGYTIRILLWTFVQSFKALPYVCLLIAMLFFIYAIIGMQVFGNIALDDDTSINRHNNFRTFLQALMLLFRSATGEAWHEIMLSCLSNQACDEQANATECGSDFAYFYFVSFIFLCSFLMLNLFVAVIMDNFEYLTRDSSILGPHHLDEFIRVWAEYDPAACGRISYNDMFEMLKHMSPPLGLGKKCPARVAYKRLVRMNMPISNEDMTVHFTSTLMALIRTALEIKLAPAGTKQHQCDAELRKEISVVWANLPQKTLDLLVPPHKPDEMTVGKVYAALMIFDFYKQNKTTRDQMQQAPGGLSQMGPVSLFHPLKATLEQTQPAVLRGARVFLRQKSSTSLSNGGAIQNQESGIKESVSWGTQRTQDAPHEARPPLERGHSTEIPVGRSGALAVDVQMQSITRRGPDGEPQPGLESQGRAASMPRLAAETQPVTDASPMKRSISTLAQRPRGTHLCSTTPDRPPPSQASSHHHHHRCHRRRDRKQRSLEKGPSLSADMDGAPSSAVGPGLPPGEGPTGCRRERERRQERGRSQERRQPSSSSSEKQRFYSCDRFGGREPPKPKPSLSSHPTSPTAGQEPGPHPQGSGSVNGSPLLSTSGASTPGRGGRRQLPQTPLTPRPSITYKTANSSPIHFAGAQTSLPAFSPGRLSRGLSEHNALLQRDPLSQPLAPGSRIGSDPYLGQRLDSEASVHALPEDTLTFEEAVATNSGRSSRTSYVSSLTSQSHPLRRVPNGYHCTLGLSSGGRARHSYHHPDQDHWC
row,Compound,pIC50
1,CC(C)C[C@@H](C(=O)N[C@@H](Cc1ccc(OCc2ccccc2)cc1)C(=O)N1CCN(C)CC1)N(C)CC1CCCCC1,5.92
2,CC(C)CCN(C)[C@@H](CC(C)C)C(=O)N[C@@H](Cc1ccc(OCc2ccccc2)cc1)C(=O)N1CCCCC1,6.18
3,CC(C)C[C@@H](C(=O)N[C@@H](Cc1ccc(OCc2ccccc2)cc1)C(=O)NCCN1CCCCC1)N(C)C,5.39
4,CC(C)CCN(C)[C@@H](CC(C)C)C(=O)N[C@@H](Cc1ccc(OCc2ccccc2)cc1)C(=O)NCCN1CCCCC1,5.96
5,CC(C)C[C@@H](C(=O)N[C@@H](Cc1ccc(OCc2ccccc2)cc1)C(=O)N1CCN(Cc2ccccc2)CC1)N(C)Cc1ccc(C(C)(C)C)cc1,6.30
6,CC(C)C[C@@H](C(=O)N[C@@H](Cc1ccc(OCc2ccccc2)cc1)C(=O)N1CCCCC1)N(C)C,5.72
7,CC(C)CCN(C)[C@@H](CC(C)C)C(=O)N[C@@H](Cc1ccc(OCc2ccccc2)cc1)C(=O)N1CCN(C)CC1,5.92
8,CC(C)C[C@@H](C(=O)N[C@@H](Cc1ccc(OCc2ccccc2)cc1)C(=O)N1CCN(Cc2ccccc2)CC1)N(C)C,5.92
9,CC(C)C[C@@H](C(=O)N[C@@H](Cc1ccc(OCc2ccccc2)cc1)C(=O)NCCN1CCCCC1)N(C)C1CCCCC1,6.06
10,CC(C)C[C@@H](C(=O)N[C@@H](Cc1ccc(OCc2ccccc2)cc1)C(=O)NCCN1CCCCC1)N(C)CC1CCCCC1,6.00
11,CC(C)C[C@@H](C(=O)N[C@@H](Cc1ccc(OCc2ccccc2)cc1)C(=O)NC(C)(C)C)N(C)CC1CCCCC1,6.30
12,CC(C)C[C@@H](C(=O)N[C@@H](Cc1ccc(OCc2ccccc2)cc1)C(=O)NC1CCN(Cc2ccccc2)CC1)N(C)C1CCCCC1,5.89
13,CC(C)C[C@@H](C(=O)N[C@@H](Cc1ccc(OCc2ccccc2)cc1)C(=O)N1CCN(Cc2ccccc2)CC1)N(C)C1CCCCC1,6.12
14,CC(C)C[C@@H](C(=O)N[C@@H](Cc1ccc(OCc2ccccc2)cc1)C(=O)NC(C)(C)C)N(C)C,5.55
15,CC(C)CCN(C)[C@@H](CC(C)C)C(=O)N[C@@H](Cc1ccc(OCc2ccccc2)cc1)C(=O)N1CCN(Cc2ccccc2)CC1,6.23
16,CC(C)CCN(C)[C@@H](CC(C)C)C(=O)N[C@@H](Cc1ccc(OCc2ccccc2)cc1)C(=O)NC1CCN(Cc2ccccc2)CC1,6.06
17,CC(C)C[C@@H](C(=O)N[C@@H](Cc1ccc(OCc2ccccc2)cc1)C(=O)N1CCN(C)CC1)N(C)C1CCCCC1,5.25
18,CC(C)C[C@@H](C(=O)N[C@@H](Cc1ccc(OCc2ccccc2)cc1)C(=O)N1CCN(C)CC1)N(C)C,4.89
19,CC(C)C[C@@H](C(=O)N[C@@H](Cc1ccc(OCc2ccccc2)cc1)C(=O)NC1CCN(Cc2ccccc2)CC1)N(C)C,5.59

# Compounds with a higher pIC50, results first:
row,pIC50,Compound
1,6.49,CC(C)CCN(C)[C@@H](CC(C)C)C(=O)N[C@@H](Cc1ccc(OCc2ccccc2)cc1)C(=O)NC(C)(C)C
2,7.40,CC(C)C[C@@H](C(=O)N[C@@H](Cc1ccc(OCc2ccccc2)cc1)C(=O)NC(C)(C)C)N(C)Cc1ccc(C(C)(C)C)cc1
3,7.05,CC(C)C[C@@H](C(=O)N[C@@H](Cc1ccc(OCc2ccccc2)cc1)C(=O)N1CCCCC1)N(C)Cc1ccc(C(C)(C)C)cc1
4,6.49,CC(C)C[C@@H](C(=O)N[C@@H](Cc1ccc(OCc2ccccc2)cc1)C(=O)N1CCCCC1)N(C)CC1CCCCC1
5,6.51,CC(C)C[C@@H](C(=O)N[C@@H](Cc1ccc(OCc2ccccc2)cc1)C(=O)NC1CCN(Cc2ccccc2)CC1)N(C)CC1CCCCC1
6,6.70,CC(C)C[C@@H](C(=O)N[C@@H](Cc1ccc(OCc2ccccc2)cc1)C(=O)NC(C)(C)C)N(C)C1CCCCC1
7,6.57,CC(C)C[C@@H](C(=O)N[C@@H](Cc1ccc(OCc2ccccc2)cc1)C(=O)NC1CCN(Cc2ccccc2)CC1)N(C)Cc1ccc(C(C)(C)C)cc1
8,6.51,CC(C)C[C@@H](C(=O)N[C@@H](Cc1ccc(OCc2ccccc2)cc1)C(=O)NCCN1CCCCC1)N(C)Cc1ccc(C(C)(C)C)cc1
9,6.36,CC(C)C[C@@H](C(=O)N[C@@H](Cc1ccc(OCc2ccccc2)cc1)C(=O)N1CCN(C)CC1)N(C)Cc1ccc(C(C)(C)C)cc1
10,6.38,CC(C)C[C@@H](C(=O)N[C@@H](Cc1ccc(OCc2ccccc2)cc1)C(=O)N1CCN(Cc2ccccc2)CC1)N(C)CC1CCCCC1
11,6.42,CC(C)C[C@@H](C(=O)N[C@@H](Cc1ccc(OCc2ccccc2)cc1)C(=O)N1CCCCC1)N(C)C1CCCCC1
